{"source": "patent US5795561A", "about": "“Radioiodinated phospholipid ether analogues” (The Board of Regents of the University of Michigan, priority 1994, dated 1998)", "key": {"Walker 256 sarcomas": {"tested_on": "Walker 256 sarcomas", "assay": "In vivo tumor localization in rats with intramuscular Walker 256 sarcomas (Example 8)", "set-up": "species or system Sprague-Dawley rats", "details": "intravenous injection", "protocol": "12-(m-Iodophenyl)dodecyl phosphocholine (compound 50) was administered by intravenous injection to Sprague-Dawley rats with intramuscular Walker 256 sarcomas and athymic nude mice with subcutaneous human tumors, specifically, human HTB 77 ovarian adenocarcinoma, NCI 69 human small cell carcinoma, and human HTB 63 melanoma."}, "human tumor models": {"tested_on": "human tumor models", "assay": "Tissue distribution in athymic mice human tumor models (FIG. 17)", "format": "in vivo, athymic nude mice", "details": "13 days post-administration, % dose/gram of tissue plotted (FIG. 17)", "protocol": "FIG. 17 is a bar graph showing tissue distribution in the blood, liver, and specified tumor tissue of radioiodinated 12-(m-iodophenyl)-dodecyl phosphocholine in nude mice 13 days post-administration; and\nTumor:blood levels greater than 25:1 were recorded in all athymic mice human tumor models.\nFIG. 17 is a bar graph showing the tissue distribution in the blood, liver, and specified tumor tissue of compound 50 in nude mice 13 days post-administration. The data is expressed in terms of % dose/gram of tissue."}, "[1]": {"tested_on": "HTB 63 human melanoma tumors", "assay": "Tissue distribution in nude mice bearing HTB 63 human melanoma tumors (FIG. 18)", "format": "in vivo", "details": "13 days post-injection (FIG. 18)", "from_the_text": "FIG. 18 is a bar graph showing tissue distribution of radioiodinated 12-(m-iodophenyl)-dodecyl phosphocholine in nude mice bearing HTB 63 human melanoma tumors at 13 days post-injection.\nFIG. 18 is a bar graph which vividly illustrates the relative difference in tissue concentration of compound 50 in nude mice bearing HTB 63 human melanoma tumors at 13 days post-injection. The tissue concentration in the tumor tissue is remarkable."}, "[2]": {"tested_on": "human HTB 77 ovarian adenocarcinoma, NCI 69 human small cell carcinoma, and human HTB 63 melanoma", "assay": "In vivo tumor localization and scintigraphy in athymic nude mice with subcutaneous human tumors (Example 8)"}}}
{"compound": "C[N+](C)(C)CCOP(=O)([O-])OCCCCCCCCCCCCc1cccc(I)c1", "note": "[compound 50, 12-(m-iodophenyl)-dodecyl phosphocholine]", "values": [{"measurement": "tumor localization", "setting": "Walker 256 sarcomas", "result": "excellent tumor localization"}, {"measurement": "tissue distribution in blood, liver and specified tumor tissue", "setting": "human tumor models", "result": "the tumor contained the largest amount of radioactivity"}, {"measurement": "tissue concentration in the tumor tissue", "setting": "[1]", "result": "remarkable"}, {"measurement": "clearance of background activity", "setting": "[2]; beyond five days post-injection", "result": "all background activity had cleared from the liver and gastrointestinal tract"}, {"measurement": "tumor localization", "setting": "[2]; intravenous injection", "result": "excellent tumor localization"}]}
